Assay results reported in PubChem BioAssay (NCI).
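All cell lines were grown in 96-well plates and treated with compound for 48 hours. GI50 = concentration required for 50% inhibition of growth. TGI: concentration producing complete growth inhibition.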

Legend:
Assay in all cases: DTP human tumour cell line panel, 48 h
UACC-62 melanoma = system: UACC-62 melanoma
CCRF-CEM leukemia = system: CCRF-CEM leukemia
OVCAR-8 ovarian = system: OVCAR-8 ovarian
A498 renal = system: A498 renal
OVCAR-4 ovarian = system: OVCAR-4 ovarian
SK-MEL-5 melanoma = system: SK-MEL-5 melanoma
SF-268 CNS = system: SF-268 CNS
SK-MEL-28 melanoma = system: SK-MEL-28 melanoma
SF-539 CNS = system: SF-539 CNS
UO-31 renal = system: UO-31 renal

| SMILES | TGI (UACC-62 melanoma) [µM] | TGI (CCRF-CEM leukemia) [µM] | TGI (OVCAR-8 ovarian) [µM] | TGI (A498 renal) [µM] | TGI (OVCAR-4 ovarian) [µM] | TGI (SK-MEL-5 melanoma) [µM] | TGI (SF-268 CNS) [µM] | TGI (SK-MEL-28 melanoma) [µM] | TGI (SF-539 CNS) [µM] | TGI (UO-31 renal) [µM] | GI50 (A498 renal) [µM] | GI50 (UACC-62 melanoma) [µM] | GI50 (CCRF-CEM leukemia) [µM] | GI50 (OVCAR-8 ovarian) [µM] | GI50 (OVCAR-4 ovarian) [µM] | GI50 (SK-MEL-5 melanoma) [µM] | GI50 (SK-MEL-28 melanoma) [µM] | GI50 (SF-539 CNS) [µM] | GI50 (UO-31 renal) [µM] |
| --- | --- | --- | --- | --- | --- | --- | --- | --- | --- | --- | --- | --- | --- | --- | --- | --- | --- | --- | --- |
| COC(=O)CC1(O)C(C=C(C)C)C(C(=O)OC)C(=O)C(C(=O)OC)C1C(=O)OC (centres undefined) | > 100 | > 100 | > 100 | > 100 | > 100 | > 100 | > 100 | > 100 | > 100 | > 100 |  |  |  |  |  |  |  |  |  |
| CCC(/C=C/c1ccccc1)=N\NC(=S)N/N=C(/C=C/c1ccccc1)CC | > 100 | > 100 | 45.9 | 59.8 | > 100 | > 100 | > 100 | > 100 | 91.6 | > 100 |  |  |  |  |  |  |  |  |  |
| CC1CSc2nc3[nH]c(=S)[nH]c3c(=O)n2C1 (centres undefined) | > 100 | > 100 | > 100 | > 100 | > 100 | > 100 | > 100 | > 100 | > 100 | > 100 |  |  |  |  |  |  |  |  |  |
| CCOC(=O)C1(Cc2ccccc2)CCN(C(=O)c2ccccc2)C2C1C2(Cl)Cl (centres undefined) | 27.2 | 54.1 | 77.4 | 40 | > 100 | 29.5 | 91.8 | 51.6 | 38.5 | 58.9 |  |  |  |  |  |  |  |  |  |
| O=C(c1ccco1)N1CCN(C(=O)c2ccco2)C1=S | 19.1 | 5.7 | 62.5 | 35.8 | 35.2 | 25.1 | 21.8 | 22.8 | 11.2 | 10.1 | 16.6 |  |  |  |  |  |  |  |  |
| CCN(CC)C(=S)N/N=C(\C)c1ccccc1O | > 100 | 78 | > 100 | > 100 | > 100 | 51.9 | > 100 | > 100 | 54.4 | 61.9 |  |  |  |  |  |  |  |  |  |
| O=C(NCCCCNCCCNC(=O)C(F)(F)F)C(F)(F)F | > 100 | > 100 | > 100 | > 100 | > 100 | > 100 | > 100 | > 100 | > 100 | > 100 |  |  |  |  |  |  |  |  |  |
| O=[N+]([O-])C(=C/C1CCCCC1)/C(=C\C1CCCCC1)[N+](=O)[O-] | 17.6 | 17.7 | > 27.3 | 30 | 40.1 | 23.1 | 14.7 | 24.7 | 9.4 | 22.4 |  |  |  |  |  |  |  |  |  |
| COc1cc2cnc3c(c2cc1OC)Cc1cc2c(cc1-3)OCO2 | 35.1 | 0.0344 | > 100 | 17.8 | > 62.8 | 5.39 | 31.3 | > 100 | 31.8 | > 43.3 | < 0.0183 | < 0.01 | < 0.01 | 0.0527 | 13.6 | < 0.01 | 1.86 | < 0.0132 | < 0.0193 |
| COc1ccc(CN=C2Nc3ccncc3S(=O)(=O)N2c2ccccc2)cc1 | > 100 | 82.4 | > 100 | > 100 | > 100 | 47.2 | > 100 | 87.6 | 33.9 | > 100 |  |  |  |  |  |  |  |  |  |
| CC(=O)O/C(=C(/C#N)C(=O)O)C1C(C(=O)O)C(c2ccccc2[N+](=O)[O-])C=C(c2ccco2)N1c1ccncc1 (centres undefined) | 17 | > 100 | 14.6 | 25 | 37.4 | 7.24 | 25.2 | 23.7 | 3.89 | 7.53 |  |  |  |  |  |  |  |  |  |
| COC(=O)c1ccc(NCC2=CC(=O)c3ccccc3C2=O)cc1 | 27.6 | > 100 | > 100 | 54.2 | 29.1 | 27.6 | 66.2 | 33.8 | 63.6 | 35.8 |  |  |  |  |  |  |  |  |  |
| Cc1cc2c(cc1Cl)Sc1nnc(C)n1S2(=O)=O | 30.6 | 34.1 | 48.8 | 40.2 | 27.2 | 27 | 42.4 | 31.5 | 36.4 | 24.1 |  |  |  |  |  |  |  |  |  |
| C/C=C/[C@@H]1O[C@H](CC#C[Si](C)(C)C)[C@@]2(C=O)C(C)=CC[C@H](C(C)C)[C@@H]12 | 32.6 | 6.24 | > 100 | 89.6 | 51.7 | 35.2 | 52.3 | 47.8 | 49.7 | 3.53 |  |  |  |  |  |  |  |  |  |
| COC(=O)c1cc(C)ccc1CC(Cc1ccccc1C)C(=O)OC (centres undefined) | > 100 | 44.3 | > 100 | > 100 | > 100 | 28.4 | > 100 | > 100 | > 100 | > 100 |  |  |  |  |  |  |  |  |  |
| CC(C)(N=NC(C)(C)C1=NCCN1)C1=NCCN1 | > 100 | > 100 | > 100 | > 100 | > 100 | > 100 | > 100 | > 100 | > 100 | > 100 |  |  |  |  |  |  |  |  |  |
| Cc1ccc(NNc2cc(=O)[nH]c(=O)[nH]2)cc1Cl | > 100 | 62.4 |  | > 100 | 28.5 | > 100 | > 100 | 31.7 | 69.4 | 15.3 |  |  |  |  |  |  |  |  |  |
| Cc1[nH]n(-c2nc(O)c(C)c(=O)[nH]2)c(=O)c1CCO | > 100 | > 100 | > 100 | > 100 | > 100 | > 100 | > 100 | > 100 | > 100 | > 100 |  |  |  |  |  |  |  |  |  |
| Cn1c2ccccc2n2c3ccccc3c(=S)c(C#N)c12 | > 100 | > 100 | > 100 | > 100 | > 100 | > 100 | > 100 | > 100 | > 100 | > 100 |  |  |  |  |  |  |  |  |  |
| CC(=O)/C=C/c1c[nH]c(=O)[nH]c1=O | 574 | 649 | 873 | 566 | 883 | 574 | 720 | 504 | 601 | 397 |  |  |  |  |  |  |  |  |  |
